Measured values: US20100292132A1, “USE OF INSULIN C-PEPTIDE, ALONE OR IN COMBINATION WITH GLP-1, AS A THERAPEUTIC AGENT” (priority 2007, published 2010)

Experiments:
HIV-1IIIB = experiment: HIV-1 antiviral assay (CPE reduction, MTS) in CEM-SS cells; details: for antiviral activity of positive control compounds: HIV-1IIIB in CEM-SS cells; for reduction of cytopathic effect (CPE) in HIV-1 infected CEM-SS cells: 10 micrograms per ml, HIV-1IIIB, 6 days post-infection
HCMV strain AD169 = experiment: HCMV plaque formation assay in MRC-5 cells; details: for inhibition of HCMV plaque formation as compared to the virus control experiment: 10 micrograms per ml, MRC-5 cells, 7-10 days
[1] = tested on: hepatitis B virus (HBV) ayw strain; experiment: HBV replication assay in HepG2-2.2.15 cells (TaqMan PCR of secreted HBV DNA); type: cell-based; details: 10 micrograms per ml, six days
murine spleen cells = experiment: Th1/Th2 cytokine profiling assay; type: cell-based, Balb/c mice; details: 10 micrograms per ml; Ovalbumin restimulation; 72 hours
Excerpt: The Balb/c mice (originated in 1923, it is a popular strain and is used in many different research disciplines. Also classified as an inbred from the production of 20 or more successive brother-sister matings, the Balb/c mouse is albino and small in size) were immunized on Days 1, 15, and 29 with Ovalbumin (Ovalbumin is the main protein found in egg white, commonly used to stimulate an immunological reaction in test animals) in PBS (5 micrograms/injection). On day 50, spleens of the mice were harvested (3 weeks after last boost with Ovalbumin). […] Thereafter, additional Ovalbumin was added to the cells at 10 micrograms/ml for in vitro restimulation of the cells. 72 hours later, cell supernatants were harvested and assayed using the Becton Dickinson Mouse Th1/Th2 Cytokine CBA Kit. This kit can be used to measure Interleukin-2 (IL-2), Interleukin-4 (IL-4), Interleukin-5 (IL-5), Interferon-γ(IFN-γ), and Tumor Necrosis Factor-α (TNF-α) protein levels in a single sample. The kit performance has been optimized for analysis of physiologically relevant concentrations (pg/ml levels) of specific cytokine proteins in tissue culture supernatants and serum samples.

[2] = tested on: Primary Human endothelial cells (HUVEC); experiment: Endothelial cell migration assay; type: cell-based; details: 10 micrograms per ml; 22 hours
Protocol: Primary Human endothelial cells (HUVEC) were seeded in insert chambers with 3 micrometer pore size of multi-transwell plate for 6 hours at 37° C. in Endothelial Cell Basal Medium (EBM) supplemented with 0.1% bovine serum albumin. Thereafter, designated concentration of testing peptides—10 micrograms per ml—was added in duplicate wells. The endothelia were allowed to migrate for 22 hours at 37° C., then, migrated cells were fixed and stained with Hoechst 33342 dye. Images of 3 fields per insert were taken and the number of migrated cells per field were quantified using the ImageProPlus software. Data were analyzed for the average number of the migrated cells and standard deviation of six data points for each treatment condition. Active test peptides against HUVEC migration was determined based on 50% inhibition of migrated cells as compared with the control. Statistic p values were computed using the Student's t-test.

HUVEC = experiment: Endothelial tube formation assay; type: cell-based, human; details: 10 micrograms per ml; 20 hours
Protocol: The endothelial tube formation assay is based on the ability of endothelial cells to form three-dimensional capillary-like tubular structures when cultured on a gel of basement membrane extract. The endothelial tube formation assay represents a powerful model for studying inhibition and induction of angiogenesis. Pre-labeled HUVEC with Calcein AM were seeded in a 96-well culture plate coated with extracellular metrix (Chemicon international Cat. ECM625) and treated with test peptides—10 micrograms per ml—in full growth medium. Positive control wes vehicle only. The endothelial cells were allowed to form tubes foe 20 hours and were then examined under an inverted fluorescent microscope. Duplicate wells for each treatment were photographed and quantitatevily analyzed for an average tubule length using image analysis software ImageProPlus. Raw data were expressed as average tubule lenghs in pixels ± standard deviation. Statistic p values were computed using the Student's t-test.

Compound	antiviral activity of positive control compounds (HIV-1IIIB)	inhibition of HBV replication as compared to the virus control infection [1] [%]	change of the production of IL-5 (murine spleen cells)	change of the production of TNF-alpha (murine spleen cells)	inhibition of the migration of human endothelial cells [2] [%]	inhibition of the tube formation of human endothelial cells (HUVEC) [%]	inhibition of HCMV plaque formation as compared to the virus control experiment (HCMV strain AD169)	reduction of cytopathic effect (CPE) in HIV-1 infected CEM-SS cells (HIV-1IIIB) [%]	other results
Cc1cn([C@H]2C[C@H](N=[N+]=[N-])[C@@H](CO)O2)c(=O)[nH]c1=O [AZT, reference compound]	expected levels of antiviral activity								
Nc1nc(O)c2ncn(COC(CO)CO)c2n1 [Ganciclovir, reference compound]									antiviral activity of positive control compound (HCMV strain AD169; HCMV in MRC-5 cells): expected levels of antiviral activity
CC(C)(C)NC(=O)[C@@H]1CN(Cc2cccnc2)CCN1C[C@@H](O)C[C@@H](Cc1ccccc1)C(=O)N[C@H]1c2ccccc2C[C@H]1O [indinavir, reference compound]	expected levels of antiviral activity								
Glu-Ala-Glu-Asp-Leu-Gln-Val-Gly-Gln-Val-Glu-Leu-Gly-Gly-Gly-Pro-Gly-Ala-Gly-Ser-Leu-Gln-Pro-Leu-Ala-Leu-Glu-Gly-Ser-Leu-Gln-OH (EAEDLQVGQVELGGGPGAGSLQPLALEGSLQ; printed: Glu-Ala-Glu-Asp-Leu-Gln-Val-Gly-Gln-Val-Glu-Leu-Gly-Gly-Gly-Pro-Gly-Ala-Gly-Ser-Leu-Gln-Pro-Leu-Ala-Leu-Glu-Gly-Ser-Leu-Gln-) [Peptide 1]		13.6	did not significantly change	did not significantly change	29	19	did not inhibit	93.6	change of the production of IFN-gamma (murine spleen cells): did not significantly change; induction of the production of IL-2 (murine spleen cells): 24.6%; induction of the production of IL-4 (murine spleen cells): 34.7%
His-Ala-Glu-Gly-Thr-Phe-Thr-Ser-Asp-Val-Ser-Ser-Tyr-Leu-Glu-Gly-Gln-Ala-Ala-Lys-Glu-Phe-Ile-Ala-Trp-Leu-Val-Lys-Gly-Arg-NH2 [Peptide 2]		37.2	did not significantly change	did not significantly change	6	1	2.9%	61.1	decrease of the production of IFN-gamma (murine spleen cells): 39.7%; decrease of the production of IL-2 (murine spleen cells): 45.7%; decrease of the production of IL-4 (murine spleen cells): 70.9%
